Patent US11672842B2, “Gonadotropin-releasing hormones for use as adjuvant immunotherapeutics” (ISR IMMUNE SYSTEM REGULATION HOLDING AB (PUBL), priority 2017, dated 2023)
[ ]: non-standard residue; d: D form. pGlu = O=C1CC[C@@H](C(=O)O)N1

Legend:
[1] = Open-label phase IIa clinical study: safety and tolerability; format: in vivo, human
From the text: The study outline is depicted in FIG. 3.

[2] = test system: CD4+ and CD8+ T cells (PBMCs from a healthy donor); assay: MHC class I expression after stimulation of T cells with GnRH II (FIG. 1); format: cell-based, human; settings: GnRH II and IL-2 for 72 hours, flow cytometry
Protocol: FIG. 1: Expression of MHC class I after stimulation of T cells with increasing concentrations of GnRH II. PBMCs from a healthy donor was stimulated with GnRH II and IL-2 for 72 hours. Data points represent mean fluorescent intensity of MCH class I expression on CD4^+ T cells (blue triangles) or CD8^+ T cells (black squares) measured with flow cytometry.

[3] = test system: CD4+ T-lymphocytes; settings: BB rats exhibiting an AIDS-like lymphocyte profile; cited from earlier work

Which “Any AE affecting impotence, % of patients” value ([1]; Safety (n = 26)) does the source give for `CCNC(=O)[C@@H]1CCCN1C(=O)[C@H](CCCNC(=N)N)NC(=O)[C@H](CC(C)C)NC(=O)[C@@H](COC(C)(C)C)NC(=O)[C@H](Cc1ccc(O)cc1)NC(=O)[C@H](CO)NC(=O)[C@H](Cc1c[nH]c2ccccc12)NC(=O)[C@H](Cc1cnc[nH]1)NC(=O)[C@@H]1CCC(=O)N1` [buserelin acetate] here?
The value was “(23.1%)”.

What about the “Any AE affecting libido, % of patients” value ([1]; Safety (n = 26)) of the same molecule?
Its value is “(30.8%)”.

What about the “Any AE leading to discontinuation, % of patients” value ([1]; Safety (n = 26)) of the same molecule?
The value was “(3.8%)”.

And the “Any AE, % of patients” value ([1]; Safety (n = 26))?
Its value is “(100.0%)”.

And the “Any SAE, % of patients” value ([1]; Safety (n = 26))?
Its value is “(0.0%)”.

And the “Any treatment-related AE, % of patients” value ([1]; Safety (n = 26))?
The value was “(65.4%)”.

What about the “Any treatment-related SAE, % of patients” value ([1]; Safety (n = 26)) of the same molecule?
Its value is “(0.0%)”.

And the “Death, % of patients” value ([1]; Safety (n = 26))?
Its value is 0.0%.

What about the “grading of adverse events” value ([1]; in words) of the same molecule?
Its value is “All adverse events except one was graded as mild”.

And the “overall safety and tolerability of the treatment” value ([1]; in words)?
The value was “safe and well-tolerated”.

And the “serious adverse events (SAEs) during the study” value ([1]; in words)?
Its value is “no serious adverse events”.

With “pyroGlu-His-Trp-Ser-His-Gly-Trp-Tyr-Pro-Gly-NH2 ([pGlu]HWSHGWYPG-NH2; SMILES NC(=O)CNC(=O)[C@@H]1CCCN1C(=O)[C@H](Cc1ccc(O)cc1)NC(=O)[C@H](Cc1c[nH]c2ccccc12)NC(=O)CNC(=O)[C@H](Cc1c[nH]cn1)NC(=O)[C@H](CO)NC(=O)[C@H](Cc1c[nH]c2ccccc12)NC(=O)[C@H](Cc1c[nH]cn1)NC(=O)[C@@H]1CCC(=O)N1) [GnRH II, second, non-hypothalamic form of GnRH]” as the molecule, how does the “MHC class I expression on T cells” value [2] read?
Its value is “stimulates MHC class I expression”.

With “pyroGlu-His-Trp-Ser-Tyr-Gly-Leu-Arg-Pro-Gly-NH2 (EHWSYGLRPG; N-terminal pyroglutamate, C-terminal amide; printed: Glu-His-Trp-Ser-Tyr-Gly-Leu-Arg-Pro-Gly-) [GnRH I, decapeptide hormone]” as the molecule, how does the “CD4+ T-lymphocyte numbers” value [3] read?
Its value is “increased”.
